Calls of active or inactive are those of the source. The rule behind the calls is not given here.
Experiments:
[1] = test system: MCF7; test: Induction of apoptosis in human MCF7 cells assessed as early apoptotic cells at IC50 after 48 hrs by annexin V-FITC/propidium iodide staining based flow cytometric analysis (reference value: 0.1%); type: functional
[2] = test system: MCF7; test: Cytotoxicity against human MCF7 cells assessed as growth inhibition after 72 hrs by MTT assay; type: functional, cell-based; details: MCF7, 72 h
[3] = test system: MCF7; test: Induction of ROS generation in human MCF7 cells at IC50 after 24 hrs by CM-H2DCFDA staining based flow cytometric analysis (reference value: 12.6%); type: functional
[4] = test system: MCF7; test: Induction of apoptosis in human MCF7 cells assessed as increase in cleaved caspase-7 level at IC50 after 48 hrs by western blot analysis; type: functional, cell-based
[5] = test system: MCF7; test: Cell cycle arrest in human MCF7 cells assessed as accumulation at G0/G1 phase at IC50 after 48 hrs by propidium iodide staining based flow cytometric analysis (reference value: 59.5%); type: functional
[6] = test system: MCF7; test: Induction of apoptosis in human MCF7 cells assessed as late apoptotic cells at IC50 after 24 hrs by annexin V-FITC/propidium iodide staining based flow cytometric analysis (reference value: 0.0%); type: functional
[7] = test system: MCF7; test: Induction of apoptosis in human MCF7 cells assessed as dead cells at IC50 after 48 hrs by annexin V-FITC/propidium iodide staining based flow cytometric analysis (reference value: 0.2%); type: functional
[8] = test system: MCF7; test: Cell cycle arrest in human MCF7 cells assessed as accumulation at S phase at IC50 after 48 hrs by propidium iodide staining based flow cytometric analysis (reference value: 16.3%); type: functional
[9] = test system: MCF7; test: Induction of apoptosis in human MCF7 cells assessed as progressive cell detachment at IC50 after 24 hrs by inverted phase contrast microscopic analysis; type: functional, cell-based
[10] = test system: MCF7; test: Induction of apoptosis in human MCF7 cells assessed as increase in cleaved caspase-9 level at IC50 after 48 hrs by western blot analysis; type: functional, cell-based
[11] = test system: MCF7; test: Cell cycle arrest in human MCF7 cells assessed as accumulation at G0/G1 phase at IC50 after 24 hrs by propidium iodide staining based flow cytometric analysis (reference value: 59.5%); type: functional
[12] = test system: MCF7; test: Cell cycle arrest in human MCF7 cells assessed as accumulation at S phase at IC50 after 24 hrs by propidium iodide staining based flow cytometric analysis (reference value: 16.3%); type: functional
[13] = test system: MCF7; test: Induction of apoptosis in human MCF7 cells assessed as depolarized mitochondrial membrane at IC50 after 48 hrs by JC-1 dye based FACS analysis (reference value: 10%); type: functional
[14] = test system: MCF7; test: Cell cycle arrest in human MCF7 cells assessed as accumulation at G2/M phase at IC50 after 48 hrs by propidium iodide staining based flow cytometric analysis (reference value: 24.2%); type: functional
[15] = test system: MCF7; test: Induction of apoptosis in human MCF7 cells assessed as increase in cleaved PARP-1 level at IC50 after 48 hrs by western blot analysis; type: functional, cell-based
[16] = test system: MCF7; test: Induction of apoptosis in human MCF7 cells assessed as viable cells at IC50 after 48 hrs by annexin V-FITC/propidium iodide staining based flow cytometric analysis (reference value: 99.8%); type: functional
[17] = test system: MCF7; test: Induction of apoptosis in human MCF7 cells assessed as ratio of depolarized to polarized mitochondrial membrane at IC50 by JC-1 dye based FACS analysis; type: functional, cell-based; details: TDE = time-dependent effect
[18] = test system: MCF7; test: Induction of apoptosis in human MCF7 cells assessed as depolarized mitochondrial membrane at IC50 after 24 hrs by JC-1 dye based FACS analysis (reference value: 10%); type: functional
[19] = test system: MCF7; test: Cell cycle arrest in human MCF7 cells assessed as accumulation at G2/M phase at IC50 after 24 hrs by propidium iodide staining based flow cytometric analysis (reference value: 24.2%); type: functional
[20] = test system: MCF7; test: Induction of apoptosis in human MCF7 cells assessed as polarized mitochondrial membrane at IC50 after 48 hrs by JC-1 dye based FACS analysis (reference value: 90%); type: functional
[21] = test system: MCF7; test: Induction of apoptosis in human MCF7 cells assessed as dead cells at IC50 after 24 hrs by annexin V-FITC/propidium iodide staining based flow cytometric analysis (reference value: 0.2%); type: functional
[22] = test system: MCF7; test: Induction of apoptosis in human MCF7 cells assessed as late apoptotic cells at IC50 after 48 hrs by annexin V-FITC/propidium iodide staining based flow cytometric analysis (reference value: 0.0%); type: functional
[23] = test system: MCF7; test: Induction of apoptosis in human MCF7 cells assessed as rounded cells at IC50 after 24 hrs by inverted phase contrast microscopic analysis; type: functional, cell-based
[24] = test system: MCF7; test: Induction of apoptosis in human MCF7 cells assessed as polarized mitochondrial membrane at IC50 after 24 hrs by JC-1 dye based FACS analysis (reference value: 90%); type: functional
[25] = test system: MCF7; test: Induction of apoptosis in human MCF7 cells assessed as early apoptotic cells at IC50 after 24 hrs by annexin V-FITC/propidium iodide staining based flow cytometric analysis (reference value: 0.1%); type: functional
[26] = test system: MCF7; test: Induction of apoptosis in human MCF7 cells assessed as viable cells at IC50 after 24 hrs by annexin V-FITC/propidium iodide staining based flow cytometric analysis (reference value: 99.8%); type: functional

Row | Compound | Activity [1] [%] | IC50 [2] [µM] | Activity [3] [%] | Activity [4] | Activity [5] [%] | Activity [6] [%] | Activity [7] [%] | Activity [8] [%] | Activity [9] | Activity [10] | Activity [11] [%] | Activity [12] [%] | Activity [13] [%] | Activity [14] [%] | Activity [15] | Activity [16] [%] | Activity [17] | Activity [18] [%] | Activity [19] [%] | Activity [24] [%] | other results
1 | C=C1CC[C@@H]2[C@](C)(CO)[C@H](O)CC[C@@]2(C)[C@@H]1CC1CN(Cc2ccccc2)[C@@]2(C(=O)Nc3ccc(Cl)cc32)[C@]12C(=O)OC[C@H]2O (some centres not stated) | 84.8 | 12.7 | 99.4 | Active | 42.9 | 0.7 | 0.2 | 35.8 | Active | Active | 42.7 | 27.8 | 89.8 | 20.2 | Active | 7.9 | tde | 62.3 | 29.5 | 37.7 | Activity [20]: 10.2%; Activity [21]: 0.9%; Activity [22]: 7.1%; Activity [23]: Active; Activity [25]: 28.5%; Activity [26]: 71.5%
2 | C=C1CC[C@@H]2[C@](C)(CO)[C@H](O)CC[C@@]2(C)[C@@H]1CC1CN(Cc2ccccc2)[C@@]2(C(=O)Nc3c(F)cccc32)[C@]12C(=O)OC[C@H]2O (some centres not stated) | 57.8 | 13.7 | 96.2 | Active | 33.3 | 0.4 | 1.4 | 48.1 | Active | Active | 46.6 | 31.1 | 97.5 | 17.4 | Active | 36.7 | tde | 50 | 22.2 | 50.1 | Activity [20]: 2.5%; Activity [21]: 0.6%; Activity [22]: 4.1%; Activity [23]: Active; Activity [25]: 22.7%; Activity [26]: 76.3%
3 | C=C1CC[C@@H]2[C@](C)(CO)[C@H](O)CC[C@@]2(C)[C@@H]1CC1CN(Cc2ccccc2)[C@@]2(C(=O)c3cccc4cccc2c34)[C@]12C(=O)OC[C@H]2O (some centres not stated) | 95 | 8.9 | 97.7 | Active | 32.3 | 0.8 | 0 | 38.6 | Active | Active | 46.3 | 23.9 | 96.4 | 27.5 | Active | 0.4 | tde | 83 | 29.8 | 17 | Activity [20]: 3.6%; Activity [21]: 0.3%; Activity [22]: 4.6%; Activity [23]: Active; Activity [25]: 42.4%; Activity [26]: 56.5%
4 | C=C1CC[C@@H]2[C@](C)(CO)[C@H](O)CC[C@@]2(C)[C@@H]1CC1CN(Cc2ccccc2)[C@@]2(C(=O)Nc3ccc(C)cc32)[C@]12C(=O)OC[C@H]2O (some centres not stated) | 18.5 | 10.9 | 99.9 | Active | 37.9 | 0.6 | 2.2 | 41.7 | Active | Active | 42.4 | 28.5 | 88.9 | 19.4 | Active | 77.8 | tde | 79 | 29.1 | 21 | Activity [20]: 11.1%; Activity [21]: 0.8%; Activity [22]: 1.5%; Activity [23]: Active; Activity [25]: 19.7%; Activity [26]: 79.2%
5 | N#CC(C#N)=NNc1cccc(Cl)c1 [CARBONYL CYANIDE M-CHLOROPHENYLHYDRAZONE] | – | – | – | – | – | – | – | – | – | – | – | – | – | – | – | – | – | 100 | – | 0 | –
6 | C=C1CC[C@@H]2[C@](C)(CO)[C@H](O)CC[C@@]2(C)[C@@H]1CC1CN(Cc2ccccc2)[C@@]2(C(=O)Nc3ccc(Br)cc32)[C@]12C(=O)OC[C@H]2O (some centres not stated) | 93.9 | 12.8 | 98.1 | Active | 34.2 | 2 | 0 | 43 | Active | Active | 40.3 | 28.5 | 93.1 | 22 | Active | 1.7 | tde | 46.1 | 31.1 | 54.1 | Activity [20]: 6.4%; Activity [21]: 0.9%; Activity [22]: 4.4%; Activity [23]: Active; Activity [25]: 35.7%; Activity [26]: 61.4%

Reference: ChEMBL document CHEMBL3734695, “Cytotoxic potential of dispirooxindolo/acenaphthoquino andrographolide derivatives against MCF-7 cell line” (Medchemcomm, 2015)
